Measured values: patent US20240217946A1, “ANTIDEPRESSANT AND ANXIOLYTIC SUBSTITUTED CINNAMAMIDE COMPOUND” (TASLY PHARMACEUTICAL GROUP CO., LTD., priority 2021, published 2024)

Tests used:
mice [1] = conditions: mouse, in vivo; cited from earlier work
mice [2] = conditions: 10 mg/kg for 7 days; cited from earlier work
SD rats = assay: Vogel drinking conflict experiment in rats, single administration; assay type: in vivo
Description: 75 male SD rats, with the body weight of 180-220 g, were fed adaptively for 1 week, water deprived for 24 h for training period test. The animals screened to be qualified were randomly divided into 7 groups (a solvent control group, estazolam group, compound M2 group, compound II-3 group, compound II-4 group, compound II-5 group and compound II-10 group) according to their body weight, with 8 rats in each group. […] results of 3.1: the positive drug estazolam was administered intragastrically at 1.24 mg/kg; and the solvent control group was gavaged with an equal volume of solvent. The grouped animals were continued to be water deprived for 24 h and were given a single dose, and tested in a punishment experiment 30 min after the single dose.
The experiment was carried out in two stages. The first stage is a training stage, in which 24 h after water deprivation, animals were placed in an operation box separately, and were allowed to fully explore until they found the bottle mouth and started to lick water (with an intensity of electric shock being 0 mA), a counter automatically recorded the number of licks within 3 min, and the animals that licked water less than 300 times were eliminated.
Observation index: the number of water licks of rats in the punishment stage.
(§1) Data was expressed as mean±standard (mean±SD) difference, and statistics of data differences were made by one-way analysis of variance (ANOVA) or nonparametric test, and differences between groups were determined by P<0.05.

ICR mice = assay: Elevated plus maze experiment in mice, single administration; assay type: in vivo
Description: 50 male ICR mice were randomly divided into 5 groups (a solvent control group, estazolam group, M2 high dosage group, M2 medium dosage group, M2 low dosage group), with 10 mice in each group. The compound M2 high, medium and low dosage groups were intragastrically administered at 20 mg/kg. 10 mg/kg and 5 mg/kg, respectively; the positive drug estazolam was intragastrically administered at 2.5 mg/kg; and the solvent control group was gavaged with an equal volume of solvent. Behavior test was performed in each group 30 min after single administration. The experiments were required to be conducted between 8:00 am and […], and all animals entered the test laboratory on the previous day.
The laboratory was dimly lit (with the lowest brightness that can distinguish the subtle activities of mice at a distance of 1.5 m) and the brightness was kept constant, with a room temperature of about 20° C., and kept quiet. Before the maze test, each mouse was placed in a 35 cm*10 cm*5 cm plastic box and left to explore freely for 5 min and then quickly placed at the central platform of an elevated plus maze, with its head facing one of the open arms, and the following indexes were recorded upon release. Each mouse was tested for 5 min. Observers observed and recorded animal activities at a distance of 1.5 m. At intervals, the maze was wiped with a wet cloth to remove feces, and then wiped with a dry cloth before a next mouse was tested.
• (1) The number of open arm entries (OE): the number of entries into any open arm, based on the fact that all four claws of the mouse entered the arm, and a complete exit of one claw from the arm indicated the completion of the entry activity; • (2) open arm time (OT): the time of entering an open arm, with the unit of seconds; • (3) the number of close arm entries (CE): the number of entries into any close arm, based on the fact that all four claws of the mouse entered the arm; • (4) close arm time (CT): the time of entering a close arm, with the unit of seconds; • (5) percentage of open arm time: OT %=OT/(OT+CT)*100%; and • (6) percentage of open arm entries: OE %=OE/(OE+CE)*100%.
70 male ICR mice were randomly divided into 7 groups (a solvent control group, estazolam group, compound M2 group, compound II-3 group, compound II-4 group, compound II-5 group, and compound II-10 group), with 10 mice in each group. The dosage of M2 and its four structurally similar compounds was determined as 20 mg/kg according to the experimental results of 3.1: the positive drug estazolam was administered intragastrically at 2.5 mg/kg; and the solvent control group was gavaged with an equal volume of solvent. Behavior test was performed in each group 30 min after single administration. The experiments were required to be conducted between 8:00 am and […], and all animals entered the test laboratory on the previous day.
The behavioral test method and behavioral observation indexes were the same as those in 3.1.
as §1

mice [3] = conditions: 10 mg/kg continuously for 7 days; cited from earlier work
[4] = comparative study (Table 13), 20 mg/kg i.g., 30 min after single administration

In the case of `O=C(/C=C/c1cc2c(c(C(F)(F)F)c1)OCO2)N1CCCCC1` [Compound II-10], the “immobility time of forced swimming in mice” value (mice [1]) is listed as “significantly shorten the immobility time”, the “immobility time of tail suspension in mice” value (mice [2]) is listed as “significantly shorten the immobility time” and the “Number of times of drinking water” value (SD rats; 10 mg/kg i.g., 30 min after single dose, punishment stage 3 min, n = 8) is listed as 499.61 ± 133.93. For the same molecule, the “anxiolytic activity in drinking conflict experiment vs solvent control group” value (SD rats; single intragastric administration of 20 mg/kg) was “significant anxiolytic activity”, the OE % (ICR mice; [4]) was 50.00 ± 10.23 % and the OT % (ICR mice; [4]) was 52.08 ± 12.25 %. The “anxiolytic activity in elevated plus maze vs solvent control group” value (ICR mice; comparative study, single intragastric administration of 20 mg/kg) was “significant anxiolytic activity” and the “reserpine-induced body temperature decrease and akinesia in mice, degree of eye closure” value (mice [3]) was “significantly antagonizing”.
